Assay: log P by HPLC
Type: physicochemical
Settings: HPLC, gradient method, acetonitrile/0.1% aqueous phosphoric acid; EEC directive 79/831 Annex V. A8
A logP of 4.07 was found for CCCCNc1c(-c2ccc(F)cc2F)c(Cl)nc2nc(C(F)(F)F)nn12 [compound 526] in this work.
A logP of 4.4 was found for CC(C)(C)CNc1c(-c2ccc(F)cc2F)c(Cl)nc2nc(C(F)(F)F)nn12 [compound 527] in this work.
A logP of 4.03 was found for CCC(C)Nc1c(-c2ccc(F)cc2F)c(Cl)nc2nc(C(F)(F)F)nn12 (centres unmarked) [compound 528] in this work.
A logP of 3.7 was found for Fc1ccc(-c2c(Cl)nc3nc(C(F)(F)F)nn3c2NCCC(F)(F)F)c(F)c1 [compound 529] in this work.
A logP of 4.21 was found for Fc1ccc(-c2c(Cl)nc3nc(C(F)(F)F)nn3c2NC2CCCC2)c(F)c1 [compound 530] in this work.
A logP of 3.49 was found for Fc1ccc(-c2c(Cl)nc3nc(C(F)(F)F)nn3c2NC2CC2)c(F)c1 [compound 531] in this work.
A logP of 3.58 was found for Fc1ccc(-c2c(Cl)nc3nc(C(F)(F)F)nn3c2NCC(F)(F)F)c(F)c1 [compound 532] in this work.
A logP of 3.8 was found for Fc1ccc(-c2c(Cl)nc3nc(C(F)(F)F)nn3c2NCC2CC2)c(F)c1 [compound 533] in this work.
A logP of 3.75 was found for C=C(C)CNc1c(-c2ccc(F)cc2F)c(Cl)nc2nc(C(F)(F)F)nn12 [compound 534] in this work.
A logP of 4.19 was found for CC(C)(C)Nc1c(-c2ccc(F)cc2F)c(Cl)nc2nc(C(F)(F)F)nn12 [compound 535] in this work.
A logP of 4.44 was found for Fc1ccc(-c2c(Cl)nc3nc(C(F)(F)F)nn3c2NC2CCCC(C(F)(F)F)C2)c(F)c1 (centres unmarked) [compound 536] in this work.
A logP of 4.43 was found for Fc1ccc(-c2c(Cl)nc3nc(C(F)(F)F)nn3c2NC2CCC(C(F)(F)F)CC2)c(F)c1 (centres unmarked) [compound 537] in this work.
A logP of 1.77 was found for CN(C)CCN(C)c1c(-c2ccc(F)cc2F)c(Cl)nc2nc(C(F)(F)F)nn12 [compound 538] in this work.
A logP of 3.65 was found for C#CCN(C)c1c(-c2ccc(F)cc2F)c(Cl)nc2nc(C(F)(F)F)nn12 [compound 539] in this work.
A logP of 3.62 was found for CN(CC1OCCO1)c1c(-c2ccc(F)cc2F)c(Cl)nc2nc(C(F)(F)F)nn12 [compound 540] in this work.
A logP of 4.09 was found for C=CCN(C)c1c(-c2ccc(F)cc2F)c(Cl)nc2nc(C(F)(F)F)nn12 [compound 541] in this work.
A logP of 3.19 was found for CN(CCC#N)c1c(-c2ccc(F)cc2F)c(Cl)nc2nc(C(F)(F)F)nn12 [compound 542] in this work.
A logP of 4.11 was found for CN(Cc1ccco1)c1c(-c2ccc(F)cc2F)c(Cl)nc2nc(C(F)(F)F)nn12 [compound 543] in this work.
A logP of 4.54 was found for CC(C)CN(C)c1c(-c2ccc(F)cc2F)c(Cl)nc2nc(C(F)(F)F)nn12 [compound 544] in this work.
A logP of 3.73 was found for COCCN(C)c1c(-c2ccc(F)cc2F)c(Cl)nc2nc(C(F)(F)F)nn12 [compound 545] in this work.
A logP of 4.44 was found for C=C(C)CN(C)c1c(-c2ccc(F)cc2F)c(Cl)nc2nc(C(F)(F)F)nn12 [compound 546] in this work.
A logP of 1.91 was found for CCN(CCN(C)C)c1c(-c2ccc(F)cc2F)c(Cl)nc2nc(C(F)(F)F)nn12 [compound 547] in this work.
A logP of 4.4 was found for C=CCN(CC)c1c(-c2ccc(F)cc2F)c(Cl)nc2nc(C(F)(F)F)nn12 [compound 548] in this work.
A logP of 4.42 was found for CCN(Cc1ccco1)c1c(-c2ccc(F)cc2F)c(Cl)nc2nc(C(F)(F)F)nn12 [compound 549] in this work.
A logP of 3.46 was found for CCN(CCC#N)c1c(-c2ccc(F)cc2F)c(Cl)nc2nc(C(F)(F)F)nn12 [compound 550] in this work.
A logP of 4.05 was found for CCOC(=O)CN(CC)c1c(-c2ccc(F)cc2F)c(Cl)nc2nc(C(F)(F)F)nn12 [compound 551] in this work.
A logP of 4.77 was found for CCCN(CC1CCCO1)c1c(-c2ccc(F)cc2F)c(Cl)nc2nc(C(F)(F)F)nn12 (centres unmarked) [compound 552] in this work.
A logP of 4.39 was found for CCCN(CCOC)c1c(-c2ccc(F)cc2F)c(Cl)nc2nc(C(F)(F)F)nn12 [compound 553] in this work.
A logP of 4.28 was found for CCOC(=O)CN(c1c(-c2ccc(F)cc2F)c(Cl)nc2nc(C(F)(F)F)nn12)C1CC1 [compound 554] in this work.
A logP of 2.76 was found for OC1CCN(c2c(-c3ccc(F)cc3F)c(Cl)nc3nc(C(F)(F)F)nn23)C1 (centres unmarked) [compound 555] in this work.
A logP of 4.47 was found for Fc1ccc(-c2c(Cl)nc3nc(C(F)(F)F)nn3c2NC2CCCCC2)c(F)c1 [compound 556] in this work.
A logP of 5.12 was found for CC(Nc1c(-c2ccc(F)cc2F)c(Cl)nc2nc(C(F)(F)F)nn12)C1CCCCC1 (centres unmarked) [compound 557] in this work.
A logP of 4.03 was found for CCN(CCOC)c1c(-c2ccc(F)cc2F)c(Cl)nc2nc(C(F)(F)F)nn12 [compound 558] in this work.
A logP of 2.89 was found for CCCCNc1c(-c2c(F)cccc2F)c(Cl)nc2nc(C)nn12 [compound 560] in this work.
A logP of 1.28 was found for Cc1nc2nc(Cl)c(-c3c(F)cccc3F)c(N(C)CCN(C)C)n2n1 [compound 561] in this work.
A logP of 2.62 was found for CCOC(=O)CN(C)c1c(-c2c(F)cccc2F)c(Cl)nc2nc(C)nn12 [compound 562] in this work.
A logP of 2.17 was found for Cc1nc2nc(Cl)c(-c3c(F)cccc3F)c(N(C)CCC#N)n2n1 [compound 563] in this work.
A logP of 2.18 was found for Cc1nc2nc(Cl)c(-c3c(F)cccc3F)c(N(C)CC#N)n2n1 [compound 564] in this work.
A logP of 2.32 was found for COC(=O)CN(C)c1c(-c2c(F)cccc2F)c(Cl)nc2nc(C)nn12 [compound 565] in this work.
A logP of 2.97 was found for Cc1nc2nc(Cl)c(-c3c(F)cccc3F)c(N(C)Cc3ccco3)n2n1 [compound 566] in this work.
A logP of 1.46 was found for CCN(CCN(C)C)c1c(-c2c(F)cccc2F)c(Cl)nc2nc(C)nn12 [compound 567] in this work.
A logP of 3.3 was found for C=CCN(CC)c1c(-c2c(F)cccc2F)c(Cl)nc2nc(C)nn12 [compound 568] in this work.
A logP of 2.41 was found for CCN(CCC#N)c1c(-c2c(F)cccc2F)c(Cl)nc2nc(C)nn12 [compound 569] in this work.
A logP of 3.96 was found for CCCN(Cc1cccs1)c1c(-c2c(F)cccc2F)c(Cl)nc2nc(C)nn12 [compound 570] in this work.
A logP of 1.28 was found for Cc1nc2nc(Cl)c(-c3c(F)cccc3F)c(N(CCN)C(C)C)n2n1 [compound 571] in this work.
A logP of 3.07 was found for Cc1nc2nc(Cl)c(-c3c(F)cc(F)cc3F)c(N3CCCCO3)n2n1 [compound 574] in this work.
A logP of 2.95 was found for Cc1nc2nc(Cl)c(-c3ccc(F)cc3F)c(N3CCCCO3)n2n1 [compound 576] in this work.
A logP of 2.61 was found for Cc1nc2nc(Cl)c(-c3c(F)cccc3F)c(N3OCCC3C)n2n1 (centres unmarked) [compound 578] in this work.
A logP of 4.14 was found for CC(C)C(C)Nc1c(-c2ccccc2Cl)c(Cl)nc2nc(C3CC3)nn12 (centres unmarked) [compound 579] in this work.
A logP of 4.19 was found for CC1C=CC(C)N1c1c(-c2ccccc2Cl)c(Cl)nc2nc(C3CC3)nn12 (centres unmarked) [compound 580] in this work.
A logP of 4.03 was found for CC(C)C(C)Nc1c(-c2c(F)cc(F)cc2F)c(Cl)nc2nc(C3CC3)nn12 (centres unmarked) [compound 581] in this work.
A logP of 4.17 was found for CC1C=CC(C)N1c1c(-c2c(F)cc(F)cc2F)c(Cl)nc2nc(C3CC3)nn12 (centres unmarked) [compound 582] in this work.
A logP of 4.12 was found for CC(C)C(C)Nc1c(-c2c(F)cccc2Cl)c(Cl)nc2nc(C3CC3)nn12 (centres unmarked) [compound 583] in this work.
A logP of 4.15 was found for CC1C=CC(C)N1c1c(-c2c(F)cccc2Cl)c(Cl)nc2nc(C3CC3)nn12 (centres unmarked) [compound 584] in this work.
A logP of 2.93 was found for Cc1nc2nc(Cl)c(-c3c(F)cc(F)cc3F)c(N3OCCC3C)n2n1 (centres unmarked) [compound 585] in this work.
A logP of 3.6 was found for Cc1nc2nc(Cl)c(-c3ccc(F)cc3Cl)c(NC(C)C(C)C)n2n1 (centres unmarked) [compound 588] in this work.
A logP of 3.23 was found for Cc1nc2nc(Cl)c(-c3ccc(F)cc3Cl)c(N3CCCCO3)n2n1 [compound 589] in this work.
A logP of 3.96 was found for C=CCN(CC)c1c(-c2ccc(F)cc2F)c(Cl)nc2nc(C3CC3)nn12 [compound 591] in this work.
A logP of 3.97 was found for CCN(Cc1ccco1)c1c(-c2ccc(F)cc2F)c(Cl)nc2nc(C3CC3)nn12 [compound 592] in this work.

Source: patent US7186831B2, “5-halo-2-alkyl[1,2,4]triazolo[1,5-a]pyrimidin-7-amines” (priority 2001, dated 2007)
